Results on eight compounds are retold here after patent US20210169911A1, “PURINE AND PYRIMIDINE NUCLEOTIDES AS ECTO-5'-NUCLEOTIDASE INHIBITORS” (The United States of America,as represented by the …, priority 2018, published 2021).

Structures can show the parent of a compound that is named as a salt.

As usually defined, the Ki is the equilibrium dissociation constant of an inhibitor or competing ligand from its target.

For series [1], the target named is T1, recombinant soluble human CD73 (Homo sapiens, UniProt P21589).
T1 construct: 6xHis (C); secretion signal peptide of vector pACGP67B (N); made in house; host or cells: Sf9 insect cells (baculovirus)
T1 sequence (P21589 28-549): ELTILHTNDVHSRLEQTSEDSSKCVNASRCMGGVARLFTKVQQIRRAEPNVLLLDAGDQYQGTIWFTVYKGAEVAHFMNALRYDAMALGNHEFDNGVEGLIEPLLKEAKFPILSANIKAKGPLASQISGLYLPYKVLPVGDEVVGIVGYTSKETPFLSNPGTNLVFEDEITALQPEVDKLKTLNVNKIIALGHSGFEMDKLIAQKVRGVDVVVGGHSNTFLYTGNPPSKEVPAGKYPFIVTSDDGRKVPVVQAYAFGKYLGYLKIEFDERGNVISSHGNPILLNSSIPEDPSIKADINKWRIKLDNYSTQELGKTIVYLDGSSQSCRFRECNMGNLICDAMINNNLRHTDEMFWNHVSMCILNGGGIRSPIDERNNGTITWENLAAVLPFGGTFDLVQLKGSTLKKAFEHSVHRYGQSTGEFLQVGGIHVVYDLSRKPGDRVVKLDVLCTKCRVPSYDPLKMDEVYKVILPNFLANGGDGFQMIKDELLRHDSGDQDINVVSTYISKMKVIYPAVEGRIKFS
Put plainly: Radiometric CD73 inhibition assay, recombinant soluble human CD73. The format is biochemical. The note with it: Table 6; for Ki: human soluble CD73, read-out: Ki at hCD73. The procedure:
(§1) The cDNA for the soluble human CD73 (Genbank accession no. NM_002526) was obtained from Prof. Dr. Norbert Sträter (University of Leipzig, Germany) (3). […] Sf9 insect cells were grown in Insect-[…] media (#: BE12-[…], Lonza, Switzerland) with 10 mg/l gentamicin and split at a ratio of 1:3 every fourth day. For transfection, cells were seeded into cell culture flasks (25 cm^2) at 60-70% confluence. 100 μl of cell medium and 1 μl of the vector DNA (1000 ng/μ1) were mixed with 2.5 μl of baculovirus genomic ProEasyTM vector DNA (AB vector, CA, USA) and combined with premixed 100 μl of cell medium and 8 μl of CellfectinTM II Reagent (Thermo Fisher Scientific, MA, USA). […] The cells were incubated for 30 min at rt, and for further 4 days at 27° C. Cells from the transfection procedure were detached from the bottom of the flasks and centrifuged for 5 min at 2000 g. 1.5 ml of the supernatant (viral stock) was added to 75 cm^2 cell culture flasks containing Sf9 cells (60-70% confluence), and the cells were incubated for four days at 27° C. Then 1.5 ml of the supernatant were taken and added to uninfected Sf9 cells in a 75 cm^2 flask. This was repeated five more times, using more cells and larger flasks after the third round of infections (150 cm^2 to which 3.0 ml of supernatant were added). The stock P8 was finally used for infection of the cells. For protein expression, 3 ml of the virus solution were used to infect 150 ml of cell media containing 2×10^6 cells/ml in a 500 ml Erlenmeyer flask, and they were incubated for 4 days at 27° C. with shaking (150 rpm). Then, cell suspensions were transferred to 50 ml falcon tubes and centrifuged at 15 min at 5000 g at 4° C. The supernatants were subjected to ultrafiltration using Amicon® Ultra-15, 10 kDa cut-off (Merck Millipore, MA, USA) at 5000 g for 15-30 min at 4° C. The concentrated protein was purified with HisPurTM Ni^2+-NTA spin columns (#: 88226, Thermo Fisher Scientific, MA, USA). The elution of the columns was performed as recommended in the instruction manual with adjusting the incubation time for protein binding to 1 h at 4° C. with an end-over-end mixer and an additional incubation step of 5 min with the elution buffer before eluting. Eluates were pooled and dialyzed (Membra-Cer, 14 kDa cut-off, 250 mm×44 mm×0.02 mm; Carl Roth, Germany) at 4° C. in 25 mM Tris, pH 7.4, with a volume adjusted to 40 times the volume of the elution fraction. […] The enzyme was aliquoted and stored at -80° C. until use.

A short description of series [2]: Stability in aqueous solution. The settings on record: decomposes to UOPCP (4a). The format is physicochemical. The protocol: Cytidine derivatives varying at the 2′-position (7a and 7b), as well as at the 5-position (7c-e), were prepared as depicted in Scheme 2. […] The required nucleosides were prepared by either reacting cytidine (6a), 2′-deoxycytidine (6b), 5-fluorocytidine (6d) or 5-methylcytidine (6e) with respective alkoxyamino derivatives in pyridine^8 followed by phosphonylation reaction to afford compounds 9a-f, or by reacting cytidine (6a) with benzyloxyamine, followed by nucleophilic substitution at the 3-position and subsequent 5′-O-phosphonylation of the nucleosides to afford compounds 9h and 9i (Scheme 2). Furthermore, 3-deazauridine-5′-α,β-methylene-diphosphate (10), (S)-methanocarba-5′-α,β-methylene-diphosphate (11) and the ethyl ester of 2-thio-UDP (12) (7) were prepared to extend the exploration of SARs of the nucleotide analogs as CD73 inhibitors. All phosphonate-substituted nucleotides were purified to homogeneity by ion exchange chromatography followed by reverse phase C18 HPLC.

In series [3] the test system is recombinant soluble human CD73. As to the kind of experiment: Radiometric CD73 inhibition assay, recombinant soluble human CD73. The format is biochemical. The settings on record: human vs rat CD73 Ki, Table 5. The procedure: as §1

Regarding `C#Cc1ccc(CO/N=c2/ccn([C@@H]3O[C@H](COP(=O)(O)CP(=O)(O)O)[C@@H](O)[C@H]3O)c(=O)n2C)cc1` [Compound 114, N^4-(4-Ethynylbenzyloxy)-3-methyleytidine-5′-α,β-methylenediphosphate triethylammonium salt], in series [1], the Ki worked out at 0.664 ± 0.089 nM.

As to `Cn1c(=O)n([C@@H]2O[C@H](COP(=O)(O)CP(=O)(O)O)[C@@H](O)[C@H]2O)cc/c1=N/OCc1cccc(Cl)c1` [Compound 106, N^4-(3-Chlorobenzyloxy)-3-methylcytidine-5′-α,β-methylenediphosphate triethylammonium salt], in series [1], the inhibitory constant (Ki) is 1.61 ± 0.09 nM.

As for `O=C(Nc1ccn([C@@H]2O[C@H](COP(=O)(O)CP(=O)(O)O)C(O)C2O)c(=O)n1)c1ccccc1` (stereo partly drawn) [Compound 7f, 4-Benzoylcytidine-5′-O-[(phosphonomethyl)phosphonic acid]], the entries for the “decomposition in aqueous solution” value in series [2] and in series [2] (listed as 71) were “rapid decomposition” and “decomposition in aqueous solution”, respectively.

For `O=c1[nH]c(=NOCc2ccccc2)c(F)cn1C1OC(COP(=O)(O)CP(=O)(O)O)C(O)C1O` (stereo not drawn) [Compound 9g, N^4-[O-(4-Benzyloxy)]-5-fluoro-cytidine-5′-O-[(phosphonomethyl)phosphonic acid]], in series [3], the “potency at human CD73 as compared to the rat enzyme” value amounted to 5 fold.

Turning to `CCN(CC)CC.CCN(CC)CC.O=c1ccn([C@H]2[C@H](O)[C@H](O)C3(COP(=O)(O)CP(=O)(O)O)C[C@H]23)c(=O)[nH]1` (stereo partly drawn) [Compound 121, (((((2R,3S,4R,5S)-4-(2,4-Dioxo-3,4-dihydropyrimidin-1(2H)-yl)-2,3-dihydroxy-1λ^5-bicyclo[3.1.0]hexan-1-yl)methoxy)(hydroxy)phosphoryl)methyl)phosphonic Acid Triethylammonium Salt], the “inhibition of hCD73” value in series [1] (at 50 μM) is reported as 35% inhibition.

Turning to “(((((2R,3S,4R,5S)-4-((Z)-4-(((4-Chlorobenzyl)oxy)imino)-3-methyl-2-oxo-3,4-dihydropyrimidin-1(2H)-yl)-2,3-dihydroxy-1V-bicyclo[3.1.0]hexan-1-yl)methoxy)(hydroxy)phosphoryl)methyl)phosphonic Acid Triethylammonium Salt [Compound 122]”, the inhibition constant (Ki) in series [1] is 59.2 ± 5.58 nM.

For the compound `Cn1c(=O)n([C@@H]2O[C@H](COP(=O)(O)CP(=O)(O)O)[C@@H](O)[C@H]2O)cc/c1=N/OCc1cccc(C(F)(F)F)c1` [Compound 107, N^4-((3-Trifluoromethyl)benzyloxy)-3-methyleytidine-5′-α,β-methylenediphosphate triethylammonium salt], the Ki in series [1] is 1.44 ± 0.09 nM.

In the case of `Cn1c(=O)n([C@@H]2O[C@H](COP(=O)(O)CP(=O)(O)O)[C@@H](O)[C@H]2O)cc/c1=N/OCc1ccc(-c2cn(CCF)nn2)cc1` [Compound 120, N^4-(4-(1-(2-Fluoroethyl)-1H-1,2,3-triazol-4-yl)benzyloxy)-3-methylcytidine-5′-α,β-methylenediphosphate triethylammonium salt], the Ki in series [1] came out at 0.627 ± 0.099 nM.
